# Key:
# [1] = system: Jurkat; test: MTS proliferation assay; format: cell-based; settings: Homo sapiens, 72 h incubation
# Procedure: (§1) The assay is performed in 96 well tissue culture plates. The cells (range : 1.5*10^3 - 10^4) are seeded out in 80 µl complete medium 24 h prior to compound treatment. The test compounds are added in 20 µl complete medium containing max 5% DMSO. The final compound concentrations in the assays are 10 µM, 3 µM, 1 µM and 0.3 µM, respectively. The assay plates are incubated for 72 h at culture conditions. The MTS reagent is prepared according to the manufacturer's protocol (Promega G1111). 20 µl MTS reagent are added to each well, the assay plates are quickly spun and incubated for another 3 h at culture conditions. Subsequently, the plates are shortly shaked and absorption measured with a microplate-reader at 492 nm. Table 3: MTS proliferation assay
# [2] = system: MRC5; test: MTS proliferation assay; format: cell-based; settings: Homo sapiens; MRC5, 72 h incubation
# Procedure: as §1
# [3] = system: HeLa; test: MTS proliferation assay; format: cell-based; settings: Homo sapiens, 72 h incubation
# Procedure: as §1
# [4] = system: Jily; test: MTS proliferation assay; format: cell-based; settings: 72 h incubation
# Procedure: as §1
# [5] = system: H460; test: MTS proliferation assay; format: cell-based; settings: Homo sapiens, NCI-H460; H460, 72 h incubation
# Procedure: as §1
# [6] = system: Jurkat; test: Hoechst 33342 nuclear staining; format: cell-based, human; set-up: key: 0: no activity; 1: weak activity comprising less than 50% of the cells; 2: strong activity comprising more than 50% of the cells; settings: 48 hour read-out
# Procedure: (§2) This assay is performed in 96 well tissue culture plates. Appropriate number of cells (adherent cells: 3 - 5*10^3, suspension cells: 8 - 10*10^3) are being seeded out in 80 µl complete medium. Adherent cells are incubated for 24 h for proper spreading out before addition of test compounds while suspension cells are immediately treated with test compounds after seeding out. The test compounds are added in 20 µl complete medium containing max 5% DMSO. […] After 24 h or 48 h incubation at culture conditions, 10 µl medium containing Hoechst 33342 dye (Sigma B-2261) at 2-5 µg/ml are added to each well. The assay plates are then further incubated for 30 minutes and subsequently analyzed with a standard inverted fluorescence microscope.
# (§3) The readout allows the determination of the fraction of apoptotic nuclei as well as other morphological criteria specific for apoptosis as a function of the treatment. Table 2: Hoechst 33342 nuclear staining (48 hour read-out)
# [7] = system: HeLa; test: Hoechst 33342 nuclear staining; format: cell-based, human; set-up: key: 0: no activity; 1: weak activity comprising less than 50% of the cells; 2: strong activity comprising more than 50% of the cells; settings: 48 hour read-out
# Procedure: as §2, §3
# [8] = system: H460; test: Hoechst 33342 nuclear staining; format: cell-based, human; set-up: key: 0: no activity; 1: weak activity comprising less than 50% of the cells; 2: strong activity comprising more than 50% of the cells; settings: 48 hour read-out
# Procedure: as §2, §3
# [9] = system: PBL; test: Hoechst 33342 nuclear staining; format: cell-based; set-up: key: 0: no activity; 1: weak activity comprising less than 50% of the cells; 2: strong activity comprising more than 50% of the cells; settings: 48 hour read-out
# Procedure: as §2, §3
# [10] = system: Jily; test: Hoechst 33342 nuclear staining; format: cell-based; set-up: key: 0: no activity; 1: weak activity comprising less than 50% of the cells; 2: strong activity comprising more than 50% of the cells; settings: 48 hour read-out
# Procedure: as §2, §3
SMILES,IC50 [1],IC50 [2],IC50 [3],IC50 [4],IC50 [5],Hoechst 33342 nuclear staining score (fraction of apoptotic nuclei) ([6]; 0.01µM),Hoechst 33342 nuclear staining score (fraction of apoptotic nuclei) ([6]; 0.1µM),Hoechst 33342 nuclear staining score (fraction of apoptotic nuclei) ([6]; 1µM),Hoechst 33342 nuclear staining score (fraction of apoptotic nuclei) ([7]; 0.01µM),Hoechst 33342 nuclear staining score (fraction of apoptotic nuclei) ([7]; 0.1µM),Hoechst 33342 nuclear staining score (fraction of apoptotic nuclei) ([7]; 1µM),"Hoechst 33342 nuclear staining score (fraction of apoptotic nuclei) ([8]; H460, 0.01µM)","Hoechst 33342 nuclear staining score (fraction of apoptotic nuclei) ([8]; H460, 0.1µM)","Hoechst 33342 nuclear staining score (fraction of apoptotic nuclei) ([8]; H460, 1µM)",Hoechst 33342 nuclear staining score (fraction of apoptotic nuclei) ([9]; 0.01µM),Hoechst 33342 nuclear staining score (fraction of apoptotic nuclei) ([9]; 0.1µM),Hoechst 33342 nuclear staining score (fraction of apoptotic nuclei) ([9]; 1µM),Hoechst 33342 nuclear staining score (fraction of apoptotic nuclei) ([10]; 0.01µM),Hoechst 33342 nuclear staining score (fraction of apoptotic nuclei) ([10]; 0.1µM),Hoechst 33342 nuclear staining score (fraction of apoptotic nuclei) ([10]; 1µM)
"COc1ccc(S(=O)(=O)n2cc(C(=O)Nc3ccc(N4CCOCC4)cc3)cc2-c2cc(OC)c(OC)c(OC)c2)cc1 [Example 3, N-p-morpholinophenyl-1-p-methoxyphenylsulfonyl-2-(3,4,5-trimethoxyphenyl)-Pyrrole-4-carboxamide]",< 100 nM,< 100 nM,< 100 nM,< 100 nM,< 100 nM,2 (strong activity comprising more than 50% of the cells.),2 (strong activity comprising more than 50% of the cells.),2 (strong activity comprising more than 50% of the cells.),0,2 (strong activity comprising more than 50% of the cells.),2 (strong activity comprising more than 50% of the cells.),0,2 (strong activity comprising more than 50% of the cells.),2 (strong activity comprising more than 50% of the cells.),0,0,0,2 (strong activity comprising more than 50% of the cells.),2 (strong activity comprising more than 50% of the cells.),2 (strong activity comprising more than 50% of the cells.)
"COc1ccc(S(=O)(=O)n2cc(Br)cc2-c2cc(OC)c(OC)c(OC)c2)cc1 [Example 1, 4-Bromo-1-p-methoxyphenylsulfonyl-2-(3,4,5-trimethoxyphenyl)-pyrrole]",< 100 nM,100 to 1000 nM,100 to 1000 nM,100 to 1000 nM,100 to 1000 nM,0,2 (strong activity comprising more than 50% of the cells.),2 (strong activity comprising more than 50% of the cells.),0,0,2 (strong activity comprising more than 50% of the cells.),0,2 (strong activity comprising more than 50% of the cells.),2 (strong activity comprising more than 50% of the cells.),0,0,0,0,2 (strong activity comprising more than 50% of the cells.),2 (strong activity comprising more than 50% of the cells.)
"COc1ccc(S(=O)(=O)n2cccc2-c2cc(OC)c(OC)c(OC)c2)cc1 [Example 2, 1-p-methoxyphenylsulfonyl-2-(3,4,5-trimethoxyphenyl)-pyrrole]",< 100 nM,< 100 nM,100 to 1000 nM,< 100 nM,< 100 nM,0,2 (strong activity comprising more than 50% of the cells.),2 (strong activity comprising more than 50% of the cells.),0,2 (strong activity comprising more than 50% of the cells.),2 (strong activity comprising more than 50% of the cells.),0,2 (strong activity comprising more than 50% of the cells.),2 (strong activity comprising more than 50% of the cells.),0,0,0,0,2 (strong activity comprising more than 50% of the cells.),2 (strong activity comprising more than 50% of the cells.)
